Measured values: ChEMBL document CHEMBL5291721, “A preclinical secondary pharmacology resource illuminates target-adverse drug reaction associations of marketed drugs” (Nat Commun, 2023)

How the values were obtained:
[1] = molecular target: T1, Alpha-1A adrenergic receptor (Homo sapiens, UniProt P35348); assay type: functional, cell-based
T1 sequence (P35348 whole entry): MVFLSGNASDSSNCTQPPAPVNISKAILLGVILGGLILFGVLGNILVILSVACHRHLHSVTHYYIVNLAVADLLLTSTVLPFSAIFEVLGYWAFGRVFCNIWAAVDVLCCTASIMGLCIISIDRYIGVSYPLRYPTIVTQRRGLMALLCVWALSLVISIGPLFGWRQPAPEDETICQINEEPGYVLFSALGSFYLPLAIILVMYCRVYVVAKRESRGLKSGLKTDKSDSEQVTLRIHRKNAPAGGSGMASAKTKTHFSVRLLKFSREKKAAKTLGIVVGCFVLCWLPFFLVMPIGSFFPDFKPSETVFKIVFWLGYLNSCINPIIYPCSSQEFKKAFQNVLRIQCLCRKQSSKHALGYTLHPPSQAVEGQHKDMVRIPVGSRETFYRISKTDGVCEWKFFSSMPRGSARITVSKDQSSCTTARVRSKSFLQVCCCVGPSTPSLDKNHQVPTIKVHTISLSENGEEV

Prothrombin = Prothrombin (Homo sapiens, UniProt P00734); assay type: functional
[2] = molecular target: 3',5'-cyclic-AMP phosphodiesterase 4A (Homo sapiens, UniProt P27815); assay type: functional
Sequence of 3',5'-cyclic-AMP phosphodiesterase 4A (P27815 whole entry): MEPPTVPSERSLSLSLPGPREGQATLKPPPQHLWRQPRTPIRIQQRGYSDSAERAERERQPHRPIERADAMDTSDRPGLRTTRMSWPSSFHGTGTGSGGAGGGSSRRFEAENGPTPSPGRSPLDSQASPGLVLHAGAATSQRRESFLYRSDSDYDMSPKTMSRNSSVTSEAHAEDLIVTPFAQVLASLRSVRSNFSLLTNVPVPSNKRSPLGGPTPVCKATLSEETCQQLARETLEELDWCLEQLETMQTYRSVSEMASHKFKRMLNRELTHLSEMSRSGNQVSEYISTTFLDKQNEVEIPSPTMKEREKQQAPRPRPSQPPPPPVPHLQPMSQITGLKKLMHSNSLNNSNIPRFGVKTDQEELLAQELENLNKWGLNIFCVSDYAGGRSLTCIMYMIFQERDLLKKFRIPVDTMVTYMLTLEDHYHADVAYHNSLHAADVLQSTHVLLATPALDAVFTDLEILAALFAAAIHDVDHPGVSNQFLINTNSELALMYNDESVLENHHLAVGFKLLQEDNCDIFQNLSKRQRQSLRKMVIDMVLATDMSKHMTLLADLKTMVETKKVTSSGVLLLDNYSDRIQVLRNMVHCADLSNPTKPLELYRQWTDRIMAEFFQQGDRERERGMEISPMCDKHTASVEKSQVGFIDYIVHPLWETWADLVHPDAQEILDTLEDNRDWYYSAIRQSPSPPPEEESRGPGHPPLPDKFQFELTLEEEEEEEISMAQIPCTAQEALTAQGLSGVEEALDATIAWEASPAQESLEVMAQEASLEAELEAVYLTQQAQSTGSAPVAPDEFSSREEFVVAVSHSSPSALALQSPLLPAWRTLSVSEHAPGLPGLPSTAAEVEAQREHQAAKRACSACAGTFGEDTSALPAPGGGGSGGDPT

[3] = molecular target: T2, Amine oxidase [flavin-containing] A (Homo sapiens, UniProt P21397); assay type: functional
T2 sequence (P21397 whole entry): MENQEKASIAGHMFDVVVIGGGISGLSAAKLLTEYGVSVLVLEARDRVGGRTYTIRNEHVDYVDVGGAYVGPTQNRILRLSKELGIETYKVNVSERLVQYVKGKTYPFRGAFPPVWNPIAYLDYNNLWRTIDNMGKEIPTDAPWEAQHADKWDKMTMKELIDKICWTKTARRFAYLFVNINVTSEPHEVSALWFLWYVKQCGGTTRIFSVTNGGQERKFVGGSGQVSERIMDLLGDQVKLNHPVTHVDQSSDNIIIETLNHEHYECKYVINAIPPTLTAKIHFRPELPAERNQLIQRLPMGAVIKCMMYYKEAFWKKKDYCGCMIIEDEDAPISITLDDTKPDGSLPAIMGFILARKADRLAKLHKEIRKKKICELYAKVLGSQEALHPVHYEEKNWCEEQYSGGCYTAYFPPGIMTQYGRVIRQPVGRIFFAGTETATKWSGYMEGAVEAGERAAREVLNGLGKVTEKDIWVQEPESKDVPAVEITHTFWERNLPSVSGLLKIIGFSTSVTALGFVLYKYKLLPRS

[4] = molecular target: T3, 5-hydroxytryptamine receptor 1A (Homo sapiens, UniProt P08908)
T3 sequence (P08908 whole entry): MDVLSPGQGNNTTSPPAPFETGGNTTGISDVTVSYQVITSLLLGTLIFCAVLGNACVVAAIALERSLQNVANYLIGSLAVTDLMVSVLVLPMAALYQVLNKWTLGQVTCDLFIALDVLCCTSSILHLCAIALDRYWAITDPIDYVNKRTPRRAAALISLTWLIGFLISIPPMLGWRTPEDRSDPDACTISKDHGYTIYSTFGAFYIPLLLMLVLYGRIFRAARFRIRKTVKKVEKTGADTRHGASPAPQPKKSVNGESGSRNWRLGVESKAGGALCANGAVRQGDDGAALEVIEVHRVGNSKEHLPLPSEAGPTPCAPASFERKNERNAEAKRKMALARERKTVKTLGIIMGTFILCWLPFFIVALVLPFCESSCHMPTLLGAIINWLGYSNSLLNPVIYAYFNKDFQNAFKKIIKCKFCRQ

Estrogen receptor [5] = molecular target: T4, Estrogen receptor (Homo sapiens, UniProt P03372)
T4 sequence (P03372 whole entry): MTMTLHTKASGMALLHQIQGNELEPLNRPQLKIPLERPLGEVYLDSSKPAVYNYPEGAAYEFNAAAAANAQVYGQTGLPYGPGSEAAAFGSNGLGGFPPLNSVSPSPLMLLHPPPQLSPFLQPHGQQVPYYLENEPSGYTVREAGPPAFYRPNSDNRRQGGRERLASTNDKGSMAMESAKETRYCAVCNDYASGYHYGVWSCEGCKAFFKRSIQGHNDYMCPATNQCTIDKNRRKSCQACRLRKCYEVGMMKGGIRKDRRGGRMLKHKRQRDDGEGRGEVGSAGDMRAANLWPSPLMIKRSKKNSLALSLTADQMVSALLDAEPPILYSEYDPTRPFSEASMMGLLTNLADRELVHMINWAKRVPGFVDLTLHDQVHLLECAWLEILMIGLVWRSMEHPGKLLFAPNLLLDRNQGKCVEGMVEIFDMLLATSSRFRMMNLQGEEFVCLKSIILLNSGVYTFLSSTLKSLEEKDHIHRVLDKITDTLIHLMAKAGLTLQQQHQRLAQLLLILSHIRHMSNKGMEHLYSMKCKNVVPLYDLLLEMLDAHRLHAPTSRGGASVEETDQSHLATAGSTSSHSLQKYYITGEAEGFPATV

[6] = molecular target: Vascular endothelial growth factor receptor 2 (Homo sapiens, UniProt P35968); assay type: functional
Sequence of Vascular endothelial growth factor receptor 2 (P35968 whole entry): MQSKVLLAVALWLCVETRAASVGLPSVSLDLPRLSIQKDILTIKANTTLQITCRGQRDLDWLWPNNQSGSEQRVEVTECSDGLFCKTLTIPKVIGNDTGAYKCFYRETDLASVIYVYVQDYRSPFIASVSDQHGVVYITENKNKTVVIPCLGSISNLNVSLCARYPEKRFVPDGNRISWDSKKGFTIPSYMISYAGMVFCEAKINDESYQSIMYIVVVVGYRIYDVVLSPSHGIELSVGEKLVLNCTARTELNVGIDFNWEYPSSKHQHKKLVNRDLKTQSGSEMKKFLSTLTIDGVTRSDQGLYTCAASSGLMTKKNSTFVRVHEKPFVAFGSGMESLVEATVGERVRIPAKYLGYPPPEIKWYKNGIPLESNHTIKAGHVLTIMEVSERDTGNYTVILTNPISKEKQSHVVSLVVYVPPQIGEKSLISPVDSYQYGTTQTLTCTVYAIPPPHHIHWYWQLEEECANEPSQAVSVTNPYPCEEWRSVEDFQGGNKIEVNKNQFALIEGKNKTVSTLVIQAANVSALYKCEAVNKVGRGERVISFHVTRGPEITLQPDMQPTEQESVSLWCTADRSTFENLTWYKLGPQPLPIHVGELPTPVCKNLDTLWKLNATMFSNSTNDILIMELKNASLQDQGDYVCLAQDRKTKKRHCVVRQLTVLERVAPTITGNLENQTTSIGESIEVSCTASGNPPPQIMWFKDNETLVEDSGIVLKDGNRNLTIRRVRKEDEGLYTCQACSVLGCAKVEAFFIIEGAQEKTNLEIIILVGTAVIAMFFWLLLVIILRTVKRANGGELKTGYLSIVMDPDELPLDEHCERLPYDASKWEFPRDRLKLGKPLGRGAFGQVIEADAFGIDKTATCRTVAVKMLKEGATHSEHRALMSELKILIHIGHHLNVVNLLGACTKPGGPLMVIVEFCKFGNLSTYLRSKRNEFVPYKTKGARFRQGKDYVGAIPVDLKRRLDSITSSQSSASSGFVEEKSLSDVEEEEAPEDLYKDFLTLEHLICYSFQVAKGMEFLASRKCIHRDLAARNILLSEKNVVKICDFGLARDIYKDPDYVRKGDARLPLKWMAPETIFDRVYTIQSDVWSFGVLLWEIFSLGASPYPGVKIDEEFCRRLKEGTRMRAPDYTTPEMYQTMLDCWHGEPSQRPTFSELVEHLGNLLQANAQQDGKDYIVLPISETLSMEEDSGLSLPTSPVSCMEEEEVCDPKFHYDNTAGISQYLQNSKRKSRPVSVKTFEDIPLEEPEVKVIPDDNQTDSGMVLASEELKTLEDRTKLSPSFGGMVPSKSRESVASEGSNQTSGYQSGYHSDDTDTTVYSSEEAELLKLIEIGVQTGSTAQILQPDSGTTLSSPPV

[7] = molecular target: Voltage-gated inwardly rectifying potassium channel KCNH2 (Homo sapiens, UniProt Q12809); assay type: functional
Sequence of Voltage-gated inwardly rectifying potassium channel KCNH2 (Q12809 whole entry): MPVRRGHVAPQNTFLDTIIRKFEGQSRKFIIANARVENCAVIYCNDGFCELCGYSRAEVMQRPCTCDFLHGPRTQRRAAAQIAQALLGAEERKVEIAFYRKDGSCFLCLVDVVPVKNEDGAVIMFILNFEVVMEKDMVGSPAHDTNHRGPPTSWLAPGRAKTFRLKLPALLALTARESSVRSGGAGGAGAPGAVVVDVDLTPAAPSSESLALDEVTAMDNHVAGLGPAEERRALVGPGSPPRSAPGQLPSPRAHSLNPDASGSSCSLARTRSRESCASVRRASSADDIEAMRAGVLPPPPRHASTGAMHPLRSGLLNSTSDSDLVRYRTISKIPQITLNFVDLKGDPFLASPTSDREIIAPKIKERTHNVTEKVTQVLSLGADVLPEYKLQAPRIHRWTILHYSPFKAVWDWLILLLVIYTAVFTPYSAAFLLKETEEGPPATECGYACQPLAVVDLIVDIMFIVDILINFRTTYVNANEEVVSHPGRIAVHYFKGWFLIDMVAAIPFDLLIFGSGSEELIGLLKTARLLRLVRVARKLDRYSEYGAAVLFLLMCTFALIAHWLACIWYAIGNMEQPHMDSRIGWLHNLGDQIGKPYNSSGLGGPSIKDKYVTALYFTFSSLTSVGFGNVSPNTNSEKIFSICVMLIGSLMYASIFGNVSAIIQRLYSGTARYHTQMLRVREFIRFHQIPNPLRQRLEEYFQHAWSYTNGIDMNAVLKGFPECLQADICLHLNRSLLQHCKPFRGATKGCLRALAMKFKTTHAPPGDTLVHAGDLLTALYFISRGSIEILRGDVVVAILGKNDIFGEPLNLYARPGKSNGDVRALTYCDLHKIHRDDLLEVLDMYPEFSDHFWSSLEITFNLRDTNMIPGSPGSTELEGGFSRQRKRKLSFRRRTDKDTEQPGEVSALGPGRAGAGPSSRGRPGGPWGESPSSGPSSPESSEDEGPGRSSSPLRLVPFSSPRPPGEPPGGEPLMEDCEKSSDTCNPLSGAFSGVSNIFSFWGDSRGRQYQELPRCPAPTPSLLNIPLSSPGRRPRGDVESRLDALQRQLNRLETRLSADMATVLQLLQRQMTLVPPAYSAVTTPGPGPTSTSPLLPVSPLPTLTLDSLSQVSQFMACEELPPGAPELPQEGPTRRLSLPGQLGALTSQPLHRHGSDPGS

Estrogen receptor [8] = molecular target: T4, Estrogen receptor; remark: listed apart in the source
Endothelin-1 receptor = molecular target: T5, Endothelin-1 receptor (Homo sapiens, UniProt P25101)
T5 sequence (P25101 whole entry): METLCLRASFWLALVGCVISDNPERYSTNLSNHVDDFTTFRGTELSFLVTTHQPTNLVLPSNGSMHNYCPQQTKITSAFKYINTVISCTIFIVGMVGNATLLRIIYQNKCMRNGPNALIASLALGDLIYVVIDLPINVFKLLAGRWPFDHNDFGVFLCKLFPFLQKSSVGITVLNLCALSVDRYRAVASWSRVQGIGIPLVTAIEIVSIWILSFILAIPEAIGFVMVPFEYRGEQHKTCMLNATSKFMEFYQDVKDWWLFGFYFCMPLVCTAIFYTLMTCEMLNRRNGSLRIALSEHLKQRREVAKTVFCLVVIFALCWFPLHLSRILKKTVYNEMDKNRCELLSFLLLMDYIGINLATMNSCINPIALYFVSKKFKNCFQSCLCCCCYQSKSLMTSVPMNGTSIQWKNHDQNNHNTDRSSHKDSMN

Motilin receptor = Motilin receptor (Homo sapiens, UniProt O43193)
Sequence of Motilin receptor (O43193 whole entry): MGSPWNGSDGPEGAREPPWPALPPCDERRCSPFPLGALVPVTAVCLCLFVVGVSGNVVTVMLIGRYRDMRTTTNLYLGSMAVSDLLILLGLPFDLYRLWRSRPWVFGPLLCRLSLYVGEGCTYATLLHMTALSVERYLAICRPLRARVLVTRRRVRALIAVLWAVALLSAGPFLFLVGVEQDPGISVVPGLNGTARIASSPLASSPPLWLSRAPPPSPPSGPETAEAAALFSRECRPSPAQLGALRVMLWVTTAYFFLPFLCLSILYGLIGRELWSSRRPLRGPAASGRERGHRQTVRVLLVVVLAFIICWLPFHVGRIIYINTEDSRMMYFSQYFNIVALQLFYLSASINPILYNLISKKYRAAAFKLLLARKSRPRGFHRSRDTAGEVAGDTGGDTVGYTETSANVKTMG
Further: assay procedure not described here.

Row | Compound | AC50 [1] | AC50 (Prothrombin) | AC50 [2] | AC50 [3] | AC50 [4] | AC50 (Estrogen receptor [5]) | AC50 [6] | AC50 ([7]; read-out: AC50) | AC50 (Estrogen receptor [8]) | AC50 (Endothelin-1 receptor) | AC50 (Motilin receptor) | AC50 ([7]; human, cellular components)
1 | CN(C)c1ccc(C(=C2C=CC(=[N+](C)C)C=C2)c2ccc(N(C)C)cc2)cc1 [GENTIAN VIOLET] | 0.845 µM | 25.2 µM | 13.2 µM | > 30 µM | 4.24 µM | > 30 µM | 2.97 µM | 1 µM | – | – | – | –
2 | Nc1ccc(S(N)(=O)=O)cc1 [SULFANILAMIDE] | > 30 µM | > 30 µM | > 30 µM | > 30 µM | > 30 µM | – | – | – | – | – | – | –
3 | HYDROXOCOBALAMIN | – | – | – | – | – | – | – | – | > 30 µM | > 30 µM | > 30 µM | > 30 µM
